# Reference: paper PMC12656546, “Enterohepatic Recirculation-Mediated Reabsorption of Aristolochic Acid I: Revealed by Toxicokinetics and Metabolite Identification in Rats” (Toxics, 2025)
# Assay: Qualitative analysis of AAI and metabolites in bile of bile duct-cannulated rats
# Assay type: in vivo, F344 rats
# Conditions: 30 mg/kg AAI oral, bile collected 0–3 h, 3–6 h, 6–9 h, 9–12 h, qualitative UHPLC-Q-Exactive
# Method: Ten 6-week-old F344 rats were divided into a control group (n = 2) and a treatment group (n = 8), with equal numbers of males and females in each group. During the experiment, rats were fasted and had access to water ad libitum. Rats in the control group were administered with 0.5% CMC-Na suspension via gastric gavage. For the treatment group, rats were administered with 30 mg/kg of AAI by the same route. Rats underwent bile duct cannulation for bile sample collection. Bile samples were collected at consecutive intervals of 0–3 h, 3–6 h, 6–9 h and 9–12 h after administration.
# For each bile sample, a 200 μL aliquot of bile was mixed with an equal volume of a methanol/acetonitrile (1:1, v/v) solution. After vortexing for 2 min, the mixture was centrifuged at 13,200 rpm for 10 min. The precipitate was discarded, and the supernatant was dried under nitrogen gas. The dried residue was reconstituted in 80 μL of methanol, vortexed for 2 min, and centrifuged at 13,200 rpm for 15 min. The resulting supernatant was used for further analysis.
# Ultra-high-performance liquid chromatography (UHPLC) coupled with a Q-Exactive orbitrap mass spectrometer (Thermo Fisher Scientific, San Jose, CA, USA) was used to analyzed the metabolites of AAI in rat bile. An ACQUITY UPLC BEH C18 column (2.1 mm × 50 mm, 1.7 μm, Waters, Milford, MA, USA) was employed for chromatographic separation. The mobile phase consisted of water containing 5 mmol/L ammonium formate/0.1% formic acid (A) and acetonitrile (B).
# Metabolites in bile samples were analyzed using electrospray ionization (ESI) in both positive and negative ion modes. The spray voltage was set at 3500 V for positive mode and 3000 V for negative mode. The ion transfer tube temperature was maintained at 350 °C with a vaporizer temperature of 300 °C. The sheath gas and auxiliary gas flow rates were 35 Arb and 10 Arb. Full-scan MS data were acquired at a resolution of 35,000 within the mass range of m/z 100–1200. For MS/MS analysis, data-dependent acquisition (DDA) was performed at a resolution of 17,500 using high-energy collision dissociation (HCD). Post-acquisition data was imported into Compound Discoverer 2.1 software to identify AAI metabolites. Blank matrices were processed alongside samples to exclude the background interferences.
structure (smiles),measurement,value
"COc1cccc2c1cc([N+](=O)[O-])c1c(C(=O)O)cc3c(c12)OCO3 [AAI, Aristolochic acid I]",detection in bile (biliary excretion),detected in bile collected during 0–3 h and 3–6 h intervals post-administration
